Reference: patent US12415989B2, “Cell culture platform for single cell sorting and enhanced reprogramming of iPSCs” (Fate Therapeutics, Inc., priority 2010, dated 2025)
“Also recorded” adds a separate entry of the source.

Experiments:
[1] = tested on: human pluripotent stem cells; experiment: Small molecule cocktails in single cell culture of human pluripotent stem cells on feeder free substratum; type: cell-based; settings: in combination with MEKi/TFGβi/GSKi
Protocol: FIGS. 1A-1E. The effects of various small molecule cocktails on single cell culture of human pluripotent stem cells on feeder free substratum. FIG. 1A. Different morphologies were evident when single cell dissociated human pluripotent stem cells were treated with various combinations of small molecules in a feeder free environment. Medium containing a combination of ROCKi/MEKi/TGFβi/GSKi delivered robust growth and viability of human pluripotent stem cells. FIG. 1B. While some small molecules supported maintenance of pluripotent stem cells, i.e., MEKi/TGFβi/GSKi, and others facilitated single cell dissociation of pluripotent stem cells, i.e., Rocki, the unique combination of these small molecules, i.e., ROCKi/MEKi/TGFβi/GSKi, supported single cell dissociation while maintaining undifferentiated status as indicated by highly proliferative colonies that were positive for pluripotent marker Tra181. Tra181, red; DAPI, blue. FIG. 1C. The combination of MEKi/TFGβi/GSKi/ROCKi supported viability and proliferation when hiPSCs were seeded at 1×10^5 cells on Matrigel and scored 4 days later for number of viable cells and percent viability as measured by trypan blue. FIG. 1D. […] FIG. 1E. […]

human fibroblasts = experiment: Reprogramming of fibroblasts to iPSCs: kinetics and efficiency of colony formation; type: cell-based; settings: additive used in the culture system for 3 days
Protocol: To initiate the reprogramming process, ectopic expression of reprogramming factors (in variable combinations of human Oct4, Sox2, Klf4, c-Myc, Lin28, and Nanog) was achieved using lentiviral transduction or other methods such as protein only treatment. In most cases, the starting cells were plated at 10% confluency (i.e., 1×10^5 cells per well of a 6-well plate) on a gelatin (Mediatech) coated surface. For the method of viral infection, freshly collected lentivirus was added to the starting cells at a dilution of 1:2, supplemented with 4 μg/mL polybrene (Millipore), and spin-infected at 650 g at 32° C. for 1.5 hrs. The culture was transferred to 37° C. and 5% CO2 for an additional 7 hrs. After the completion of the incubation, the cells were washed three times with PBS and fed with fresh medium. With difficult to infect cells, such as IMR90 fibroblasts in feeder-free culture systems, this process was repeated one more time, 48 hrs post the initial infection. For non-genetic methods of inducing reprogramming such as the use of direct protein application to the cells, protein mixtures, or cocktails, consisting of reprogramming factors at 8 μg/mL were added to cell solution and maintained for 24 hrs prior to medium change. This step was repeated for an additional two to four times. […]

Molecule | maintenance of cells in an undifferentiated state (SSEA4 and Tra181 surface expression) ([1]; compared with Y27632) | colony morphology ([1]; relative to Y27632) | post-sort seeding (human fibroblasts)
O=C(NCc1ccccc1)c1csc(Nc2ccncn2)n1 [Thiazovivin] | preferred over Y27632; also recorded: better supports the maintenance of cells in an undifferentiated state | more compact in morphology | –
fibronectin | – | – | improved post-sort seeding
